Each block holds one compound with its values, some of them ahead of it.
How the values were obtained:
Homo sapiens [1] = test: Reduction in plasma LD/HDL ratio in NIDD patient at 12.5 to 50 mg/day, po for 14 days; format: functional; set-up: scale not given: the % may be the effect or the level left
Mus musculus [2] = test: Reduction in glucose excretion in db/db mouse at 10 to 20 mg/kg/day, po dosed life long through food-admix; format: functional; set-up: scale not given: the % may be the effect or the level left
Homo sapiens [3] = test: Increase in plasma FFAs level in NIDD patient at 50 to 200 mg/day, po bid for 3 days before meals; format: functional
Homo sapiens [4] = test: Reduction in fasting plasma glucose in NIDD patient at 50 to 200 mg/day, po bid for 3 days before meals; format: functional; set-up: scale not given: the % may be the effect or the level left
Homo sapiens [5] = test: Reduction in BHB level in NIDD patient at 50 to 200 mg/day, po bid for 3 days before meals; format: functional; set-up: scale not given: the % may be the effect or the level left
[6] = Cytotoxicity against human OCI-AML3 cells assessed as reduction in cell viability; format: functional, cell-based; settings: OCI-AML-3
MOLM-13 = test: Cytotoxicity against human MOLM13 cells assessed as reduction in cell viability; format: functional, cell-based
Rattus norvegicus [7] = test: Reduction in hepatic glucose production in STZ-treated rat at 12.5 to 25 mg/kg, po; format: functional; set-up: scale not given: the % may be the effect or the level left; settings: dose mg/kg 12.5-25
Rattus norvegicus [8] = test: Inhibition of CPT1 activity in blood KB level in STZ-treated fasted rat at 0.2 to 18 mg/kg, po; format: functional; settings: dose mg/kg 0.2-18
Homo sapiens [9] = test: Reduction in postprandial glucose in NIDD patient at 125 mg/day, po for 4 days (reference value: 10.5 mM); format: functional
Mus musculus [10] = test: Reduction in fasting glucose in db/db mouse at 10 to 20 mg/kg/day, po dosed life long through food-admix; format: functional; set-up: scale not given: the % may be the effect or the level left
Mus musculus [11] = test: Reduction in daily water intake in db/db mouse at 10 to 20 mg/kg/day, po dosed life long through food-admix; format: functional; set-up: scale not given: the % may be the effect or the level left
Rattus norvegicus [12] = test: Reduction in blood glucose in STZ-treated fasted rat at 0.2 to 18 mg/kg, po measured 4 hrs post dose; format: functional; set-up: scale not given: the % may be the effect or the level left; settings: dose mg/kg 0.2-18
Homo sapiens [13] = species on record: Homo sapiens; test: Increase in left ventricular ejection fraction in CHF patient at 80 mg/day for 3 months; format: functional, Heart left ventricle
Rattus norvegicus [14] = test: Reduction in plasma TG in high fat diet fed STZ-treated rat at 12.5 mg/kg/day, po for up to 4 weeks measured 3 days to 1 week post dose; format: functional; set-up: scale not given: the % may be the effect or the level left
Homo sapiens [15] = test: Reduction in fat oxidation in NIDD patient at 100 mg/day, po for 3 days administered as single dose; format: functional; set-up: scale not given: the % may be the effect or the level left
Homo sapiens [16] = test: Reduction in plasma cholesterol level in NIDD patient at 50 to 200 mg/day, po bid for 3 days before meals; format: functional; set-up: scale not given: the % may be the effect or the level left
Rattus norvegicus [17] = test: Reduction in fasting plasma glucose level in STZ-treated rat at 12.5 to 25 mg/kg, po; format: functional; set-up: scale not given: the % may be the effect or the level left; settings: dose mg/kg 12.5-25
Homo sapiens [18] = test: Reduction in plasma TG level in NIDD patient at 12.5 to 50 mg/day, po for 14 days; format: functional; set-up: scale not given: the % may be the effect or the level left
Homo sapiens [19] = test: Increase in carbohydrate oxidation in NIDD patient at 100 mg/day, po for 3 days administered as single dose; format: functional
Mus musculus [20] = test: Reduction in FBG level in db/db mouse at 10 mg/kg, po; format: functional; set-up: scale not given: the % may be the effect or the level left
Homo sapiens [21] = test: Reduction in FBG level in NIDD patient at 12.5 to 50 mg/day, po for 14 days; format: functional; set-up: scale not given: the % may be the effect or the level left
Rattus norvegicus [22] = test: Reduction in blood KB level in STZ-treated fasted rat at 0.2 to 18 mg/kg, po; format: functional; set-up: scale not given: the % may be the effect or the level left; settings: dose mg/kg 0.2-18
Homo sapiens [23] = test: Reduction in beta-hydroxy butyrate level in NIDD patient at 12.5 to 50 mg/day, po for 14 days; format: functional; set-up: scale not given: the % may be the effect or the level left
Mus musculus [24] = test: Reduction in FBG level in db/db mouse at 50 mg/kg, po; format: functional; set-up: scale not given: the % may be the effect or the level left
Rattus norvegicus [25] = test: Reduction in fasting serum FFAs level in high fat diet fed STZ-treated rat at 12.5 mg/kg/day, po for up to 4 weeks measured 3 days to 1 week post dose; format: functional; set-up: scale not given: the % may be the effect or the level left
Homo sapiens [26] = species on record: Homo sapiens; test: Increase in stroke volume in CHF patient at 80 mg/day for 3 months; format: functional
Homo sapiens [27] = test: Reduction in whole body fat oxidation in human at 600 mg, po for 5 days; format: functional; set-up: scale not given: the % may be the effect or the level left
Homo sapiens [28] = species on record: Homo sapiens; test: Increase in maximum cardiac output in CHF patient at 80 mg/day for 3 months measured during exercise; format: functional
Homo sapiens [29] = test: Increase in metabolic clearance of glucose in NIDD patient at 50 mg, po administered as single dose; format: functional
Homo sapiens [30] = test: Reduction in plasma TG level in NIDD patient at 50 to 200 mg/day, po bid for 3 days before meals; format: functional; set-up: scale not given: the % may be the effect or the level left
Homo sapiens [31] = test: Increase in glucose MCR in NIDD patient at 50 mg, po administered as single dose; format: functional
Homo sapiens [32] = test: Reduction in basal hepatic glucose production in NIDD patient at 50 to 200 mg/day, po bid for 3 days before meals; format: functional; set-up: scale not given: the % may be the effect or the level left
Homo sapiens [33] = test: Reduction in glucose appearance rate in NIDD patient at 100 mg/day, po for 3 days administered as single dose; format: functional; set-up: scale not given: the % may be the effect or the level left
Hepatocyte = test: Inhibition of fatty acid synthesis in rat hepatocytes; format: functional, cell-based
Mus musculus [34] = test: Reduction in urine volume in db/db mouse at 10 to 20 mg/kg/day, po dosed life long through food-admix; format: functional; set-up: scale not given: the % may be the effect or the level left
[35] = Inhibition of Phospholipase A2
Mus musculus [36] = test: Reduction in blood glucose in fed db/db mouse at 50 to 100 mg/kg, po measured 2 to 4 hrs post dose; format: functional; set-up: scale not given: the % may be the effect or the level left
Mus musculus [37] = test: Reduction in blood glucose in fasted db/db mouse at 50 to 100 mg/kg, po measured 2 to 4 hrs post dose; format: functional; set-up: scale not given: the % may be the effect or the level left
Canis familiaris [38] = test: Reduction in fasting glucose in STZ-treated dog at 2.5 mg/kg/day, po for 7 days; format: functional, Canis lupus familiaris; set-up: scale not given: the % may be the effect or the level left
Rattus norvegicus [39] = test: Suppression of labeled pyruvate conversion to [14C]glucose in Sprague-Dawley rat at 10 to 20 mg/kg, po; format: functional; settings: dose mg/kg 10-20
Canis familiaris [40] = test: Reduction in blood glucose in alloxan -treated dog at 7.5 mg/kg, po administered as single dose measured 6 hrs post dose (reference value: 9 mM); format: functional, Canis lupus familiaris
Canis familiaris [41] = test: Reduction in blood glucose in STZ-treated dog at 0.7 to 2 mg/kg/day, po for 7 days measured 6 hrs post dose (reference value: 9 mM); format: functional, Canis lupus familiaris
[42] = Inhibition of carnitine palmitoyltransferase hemidiaphragms isolated from fasted pretreated rat assessed as reduction of [14]CO2 production from [1-14]-palmitate or [14C]-oleate
[43] = Inhibition of carnitine palmitoyltransferase in rat liver mitochondria assessed as formation of formation of palmitoyl[3H]carnitine from palmitoyl-CoA and [3H]carnitine
Rattus norvegicus [44] = test: Reduction in KB level in alloxan-treated rat at 25 to 50 mg/kg, po measured 2 to 5 hrs post dose; format: functional; set-up: scale not given: the % may be the effect or the level left

SMILES: CCOC(=O)C1(CCCCCCOc2ccc(Cl)cc2)CO1 (racemic) [rac-ETOMOXIR]
- Activity (Homo sapiens [1]): 35%
- Activity (Mus musculus [2]): 70%
- Activity (Homo sapiens [3]): 52%
- Activity (Homo sapiens [4]): 18%
- Activity (Homo sapiens [5]): 44%
- IC50 [6]: 51 µM
- IC50 (MOLM-13): 51 µM
- Activity (Rattus norvegicus [7]): 32%
- inhibition (INH) (Rattus norvegicus [8]): <=99%
- Activity (Homo sapiens [9]): 8.3 mM
- Activity (Mus musculus [10]): 50%
- Activity (Mus musculus [11]): 50%
- Activity (Rattus norvegicus [12]): 40%
- Activity (Homo sapiens [13]): 25%
- Activity (Rattus norvegicus [14]): 67%
- Activity (Homo sapiens [15]): 18%
- Activity (Homo sapiens [16]): 24%
- Activity (Rattus norvegicus [17]): 32%
- Activity (Homo sapiens [18]): 30%
- Activity (Homo sapiens [19]): 58%
- Activity (Mus musculus [20]): 43%
- Activity (Homo sapiens [21]): <=45%
- Activity (Rattus norvegicus [22]): 87%
- Activity (Homo sapiens [23]): 50%
- Activity (Mus musculus [24]): 55%
- Activity (Rattus norvegicus [25]): 56%
- Activity (Homo sapiens [26]): 30%
- Activity (Homo sapiens [27]): 13.7%
- Activity (Homo sapiens [28]): 38%
- Activity (Homo sapiens [29]): 30%
- Activity (Homo sapiens [30]): 54%
- Activity (Homo sapiens [31]): 33%
- Activity (Homo sapiens [32]): 18%
- Activity (Homo sapiens [33]): 8%
- IC50 (Hepatocyte): 2 µM
- Activity (Mus musculus [34]): 70%

- IC50 [35]: 2.6 µM
SMILES: COC(=O)C1(C(F)CCCCc2ccccc2)CO1 (stereo unspecified)

- EC50 [42]: 1 µM
- IC50 [43]: 0.046 µM
SMILES: CCCCCCCCCCCCCCC1(C(=O)OC)CO1 (racemic) [METHYL PALMOXIRATE]
- Activity (Mus musculus [36]): 40%
- Activity (Mus musculus [37]): 78%
- Activity (Canis familiaris [38]): 8%
- Activity (Rattus norvegicus [39]): 50%
- Activity (Canis familiaris [40]): 6.5 mM
- Activity (Canis familiaris [41]): 6.5 mM
- Activity (Rattus norvegicus [44]): 70%
